{"source": "PubChem BioAssay AID212", "about": "(DTP/NCI, 2004)", "system": "BDF1 mice, colon carcinoma 38 sc, T/C %", "assay": "NCI In Vivo Anticancer Drug Screen. Data for tumor model Colon Carcinoma 38 (subcutaneous) in B6D2F1 (BDF1) mice", "conditions": "endpoint: median tumor weight (est.), higher = larger tumour", "method_in_brief": "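Transplantable tumor in mice; compound-treated vs vehicle-dosed controls. Measured survival or tumor size; value = T ÷ C.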", "key": {"[1]": {"conditions": "dose: 50.0 mg/kg/injection, schedule: Q07DX002 (ip), vehicle: saline with Tween-80"}, "[2]": {"conditions": "dose: 100.0 mg/kg/injection, schedule: Q07DX002 (ip), vehicle: saline with Tween-80"}, "[3]": {"conditions": "dose: 200.0 mg/kg/injection, schedule: Q07DX002 (ip), vehicle: saline with Tween-80"}, "[4]": {"conditions": "dose: 25.0 mg/kg/injection, schedule: Q07DX002 (ip), vehicle: saline with Tween-80"}}, "note": "Values joined by “and” are separate entries in the source; they are usually repeats but may differ in a detail not shown here. Identical values can stand only once. Records with an inconclusive call do not appear.", "data": [{"compound": "CCC(C)C(=O)OC1C(=O)OC2CC3C(C)=CC(=O)C(O)C3(C)C3C4(O)OCC23C1C(C)C4O", "note": "(stereo not drawn)", "values": [{"measurement": "T/C", "setting": "dose: 0.5 mg/kg/injection, schedule: Q07DX002 (ip), vehicle: suspension in saline", "value": "90 % of control"}, {"measurement": "T/C", "setting": "dose: 1.0 mg/kg/injection, schedule: Q07DX002 (ip), vehicle: suspension in saline", "value": "77 % of control"}, {"measurement": "T/C", "setting": "dose: 2.0 mg/kg/injection, schedule: Q07DX002 (ip), vehicle: suspension in saline", "value": "58 % of control"}, {"measurement": "T/C", "setting": "dose: 4.0 mg/kg/injection, schedule: Q07DX002 (ip), vehicle: suspension in saline", "value": "88 % of control"}, {"measurement": "T/C", "setting": "dose: 8.0 mg/kg/injection, schedule: Q07DX002 (ip), vehicle: suspension in saline", "value": "44 % of control"}]}, {"compound": "C1CC[N-]CC1.[Cl][Pt+2][Cl].[NH-]C1CC1", "values": [{"measurement": "T/C", "setting": "dose: 6.25 mg/kg/injection, schedule: Q07DX002 (ip), vehicle: water", "value": "75 % of control"}, {"measurement": "T/C", "setting": "dose: 25.0 mg/kg/injection, schedule: Q07DX002 (ip), vehicle: water", "value": "86 % of control"}, {"measurement": "T/C", "setting": "dose: 100.0 mg/kg/injection, schedule: Q07DX002 (ip), vehicle: water", "value": "163 % of control"}]}, {"compound": "c1cc[c]([Sn]([NH]c2ncnc3[nH]cnc23)([NH]c2ncnc3[nH]cnc23)[c]2ccccc2)cc1", "values": [{"measurement": "T/C", "setting": "dose: 25.0 mg/kg/injection, schedule: Q07DX002 (ip), vehicle: saline", "value": "51 % of control"}, {"measurement": "T/C", "setting": "dose: 50.0 mg/kg/injection, schedule: Q07DX002 (ip), vehicle: saline", "value": "84 % of control"}, {"measurement": "T/C", "setting": "dose: 100.0 mg/kg/injection, schedule: Q07DX002 (ip), vehicle: saline", "value": "46 % of control"}, {"measurement": "T/C", "setting": "dose: 200.0 mg/kg/injection, schedule: Q07DX002 (ip), vehicle: saline", "value": "81 % of control"}, {"measurement": "T/C", "setting": "dose: 400.0 mg/kg/injection, schedule: Q07DX002 (ip), vehicle: saline", "value": "66 % of control"}]}, {"compound": "CO[C@@]12[C@H](COC(N)=O)C3=C(C(=O)C(C)=C(N)C3=O)N1C[C@@H]1N[C@@H]12", "values": [{"measurement": "T/C", "setting": "dose: 0.5 mg/kg/injection, schedule: Q07DX002 (ip), vehicle: saline", "value": "62 % of control and 70 % of control"}, {"measurement": "T/C", "setting": "dose: 0.5 mg/kg/injection, schedule: Q07DX002 (ip), vehicle: water", "value": "90 % of control"}, {"measurement": "T/C", "setting": "dose: 1.0 mg/kg/injection, schedule: Q07DX002 (ip), vehicle: clinical formulation", "value": "85 % of control"}, {"measurement": "T/C", "setting": "dose: 1.0 mg/kg/injection, schedule: Q07DX002 (ip), vehicle: saline", "value": "58 % of control and 61 % of control"}, {"measurement": "T/C", "setting": "dose: 1.0 mg/kg/injection, schedule: Q07DX002 (ip), vehicle: water", "value": "80 % of control"}, {"measurement": "T/C", "setting": "dose: 2.0 mg/kg/injection, schedule: Q07DX002 (ip), vehicle: clinical formulation", "value": "84 % of control"}, {"measurement": "T/C", "setting": "dose: 2.0 mg/kg/injection, schedule: Q07DX002 (ip), vehicle: saline", "value": "35 % of control and 51 % of control"}, {"measurement": "T/C", "setting": "dose: 2.0 mg/kg/injection, schedule: Q07DX002 (ip), vehicle: water", "value": "30 % of control"}, {"measurement": "T/C", "setting": "dose: 3.75 mg/kg/injection, schedule: Q07DX002 (oral), vehicle: water", "value": "112 % of control"}, {"measurement": "T/C", "setting": "dose: 4.0 mg/kg/injection, schedule: Q07DX002 (ip), vehicle: clinical formulation", "value": "20 % of control"}, {"measurement": "T/C", "setting": "dose: 4.0 mg/kg/injection, schedule: Q07DX002 (ip), vehicle: saline", "value": "8 % of control and 22 % of control"}, {"measurement": "T/C", "setting": "dose: 4.0 mg/kg/injection, schedule: Q07DX002 (ip), vehicle: water", "value": "13 % of control"}, {"measurement": "T/C", "setting": "dose: 7.5 mg/kg/injection, schedule: Q07DX002 (oral), vehicle: water", "value": "93 % of control"}, {"measurement": "T/C", "setting": "dose: 15.0 mg/kg/injection, schedule: Q07DX002 (oral), vehicle: water", "value": "21 % of control"}, {"measurement": "T/C", "setting": "dose: 30.0 mg/kg/injection, schedule: Q07DX002 (oral), vehicle: water", "value": "28 % of control"}]}, {"compound": "C[C@@H]1C[C@@H]([C@H](O)CC2CC(=O)NC(=O)C2)C(=O)[C@@H](C)C1", "values": [{"measurement": "T/C", "setting": "[1]", "value": "162 % of control"}, {"measurement": "T/C", "setting": "[2]", "value": "90 % of control"}, {"measurement": "T/C", "setting": "[3]", "value": "60 % of control"}]}, {"compound": "CCCCCCCCCCCCCCCC(=O)OCC1OC(n2ccc(N)nc2=O)C(O)C1O", "note": "(stereo not drawn)", "values": [{"measurement": "T/C", "setting": "[4]", "value": "72 % of control"}, {"measurement": "T/C", "setting": "[1]", "value": "36 % of control"}, {"measurement": "T/C", "setting": "[2]", "value": "7 % of control"}]}, {"compound": "CNc1nc2c(N)ncnc2n1C1OC(CO)C(O)C1O", "note": "(stereo not drawn)", "values": [{"measurement": "T/C", "setting": "dose: 12.5 mg/kg/injection, schedule: Q07DX002 (ip), vehicle: saline", "value": "103 % of control"}]}, {"compound": "Cn1c2nc(=O)n(-c3ccccc3)c(=O)c-2nc2c1CCCC2", "values": [{"measurement": "T/C", "setting": "[4]", "value": "72 % of control"}, {"measurement": "T/C", "setting": "[2]", "value": "70 % of control and 74 % of control"}, {"measurement": "T/C", "setting": "[3]", "value": "90 % of control"}]}]}
